The test system of test [1] is genomic DNA isolated from murine lymphoma cells. Put plainly: Cisplatin-DNA adduct detection with a CisPt-DNA adduct specific antibody. Type of test: cell-based. Conditions: after 8 h of drug treatment. On the procedure:
(§1) Eμ-Myc p19Arf−/− lymphoma cells were infected at about 30% with GFP-tagged shRNAs. The cells were then treated with drug to kill 80-90% of cells as judged by propidium iodide exclusion via flow cytometry at 48 h. At 72 h GFP positivity was assessed via flow cytometry. Using the RNAi signature approach, the free drug, prodrug, single-drug-conjugated BASPs, and multi-drug conjugated BASPs illustrated in FIGS. 9A-9C were characterized. […] Next, the RNAi signatures for each of the free drugs and their corresponding prodrug monomers and BASPs were plotted (FIG. 20E) using principal component analysis (PCA). PCA is a means of representing the variance in a multi-dimensional dataset in fewer dimensions. […] One hypothesis that may explain the observed difference between the cisplatin and oxaliplatin prodrug mechanisms is related to the ligand lability of these species. Inside the cell, where the concentration of chloride ions is much lower than in the extracellular milieu (2 to 30 mM for the former compared to ˜100 mM for the latter), the weakly bound chloride ligands of free cisplatin are replaced with aquo ligands. This diaquo species induces cytotoxic inter- or intra-strand DNA cross-links. […] Additionally, utilizing a CisPt-DNA adduct specific antibody, the genomic DNA isolated from murine lymphoma cells after 8 h of drug treatment was analyzed. […]

The test system of test [2] is Eμ-Myc p19Arf−/− lymphoma cells. The test can be described thus: RNAi signature assay (GFP-tagged shRNAs, flow cytometry). The test is classed as cell-based, murine. Conditions: drug dosed to kill 80-90% of cells at 48 h; GFP positivity at 72 h. On the procedure: RNAi signatures were performed as described previously^2-4. Briefly, Eμ-Myc p19^Arf−/− lymphoma cells were infected at about 30% with GFP-tagged shRNAs. The cells were then treated with drug to kill 80-90% of cells as judged by propidium iodide exclusion via flow cytometry at 48 h. At 72 h, GFP positivity was assessed via flow cytometry. Constrained linear regression was performed in Stata using least-squares fit with individual drug treatments as the predictor variables and the combination signatures as the response variables. The linear regression was constrained such that the sum of the predictor variables had to equal one and none could be negative.
as §1

Test [3] addresses T1, Top2A (Mus musculus, UniProt Q01320).
T1 construct: Eμ-Myc p19Arf−/− lymphoma cells were infected at about 30% with GFP-tagged shRNAs; endogenous in cells; host or cells: Eμ-Myc p19Arf-/- murine lymphoma cells
The test can be described thus: GFP competition assay with validated Top2A shRNA. The test is classed as cell-based, murine. The protocol:
(§2) Eμ-Myc p19Arf−/− lymphoma cells were infected at about 30% with GFP-tagged shRNAs. The cells were then treated with drug to kill 80-90% of cells as judged by propidium iodide exclusion via flow cytometry at 48 h. At 72 h GFP positivity was assessed via flow cytometry. Using the RNAi signature approach, the free drug, prodrug, single-drug-conjugated BASPs, and multi-drug conjugated BASPs illustrated in FIGS. 9A-9C were characterized. […] Next, the RNAi signatures for each of the free drugs and their corresponding prodrug monomers and BASPs were plotted (FIG. 20E) using principal component analysis (PCA). PCA is a means of representing the variance in a multi-dimensional dataset in fewer dimensions. […] Inside the cell, where the concentration of chloride ions is much lower than in the extracellular milieu (2 to 30 mM for the former compared to ˜100 mM for the latter), the weakly bound chloride ligands of free cisplatin are replaced with aquo ligands. This diaquo species induces cytotoxic inter- or intra-strand DNA cross-links.

Test [4] has as its target T2, Top1 (Mus musculus, UniProt Q04750).
T2 construct: Eμ-Myc p19Arf−/− lymphoma cells were infected at about 30% with GFP-tagged shRNAs; endogenous in cells; host or cells: Eμ-Myc p19Arf-/- murine lymphoma cells
T2 sequence (Q04750 1-767): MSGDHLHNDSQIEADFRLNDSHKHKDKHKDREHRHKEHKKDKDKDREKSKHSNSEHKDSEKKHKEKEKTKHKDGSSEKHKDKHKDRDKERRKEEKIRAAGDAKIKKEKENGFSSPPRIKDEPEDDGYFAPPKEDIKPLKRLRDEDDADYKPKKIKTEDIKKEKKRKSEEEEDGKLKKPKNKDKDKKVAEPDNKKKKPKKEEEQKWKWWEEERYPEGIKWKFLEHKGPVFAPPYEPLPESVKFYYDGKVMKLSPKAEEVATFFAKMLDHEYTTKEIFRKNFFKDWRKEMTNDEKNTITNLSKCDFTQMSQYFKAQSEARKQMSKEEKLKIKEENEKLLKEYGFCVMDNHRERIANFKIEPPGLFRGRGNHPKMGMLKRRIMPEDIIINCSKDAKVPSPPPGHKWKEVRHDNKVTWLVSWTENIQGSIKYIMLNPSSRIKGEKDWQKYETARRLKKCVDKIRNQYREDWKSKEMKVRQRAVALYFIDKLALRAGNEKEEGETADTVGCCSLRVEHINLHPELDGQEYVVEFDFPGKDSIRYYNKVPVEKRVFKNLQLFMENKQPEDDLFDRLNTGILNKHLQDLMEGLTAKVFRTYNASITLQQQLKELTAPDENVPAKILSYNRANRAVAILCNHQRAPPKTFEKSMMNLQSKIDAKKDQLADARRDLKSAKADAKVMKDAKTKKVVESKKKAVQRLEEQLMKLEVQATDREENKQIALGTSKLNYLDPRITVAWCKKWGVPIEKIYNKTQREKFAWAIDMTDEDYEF
The test can be described thus: GFP competition assay with validated Top1 shRNA. The test is classed as cell-based, murine. On the procedure: as §2

T1 sequence (Q01320 whole entry): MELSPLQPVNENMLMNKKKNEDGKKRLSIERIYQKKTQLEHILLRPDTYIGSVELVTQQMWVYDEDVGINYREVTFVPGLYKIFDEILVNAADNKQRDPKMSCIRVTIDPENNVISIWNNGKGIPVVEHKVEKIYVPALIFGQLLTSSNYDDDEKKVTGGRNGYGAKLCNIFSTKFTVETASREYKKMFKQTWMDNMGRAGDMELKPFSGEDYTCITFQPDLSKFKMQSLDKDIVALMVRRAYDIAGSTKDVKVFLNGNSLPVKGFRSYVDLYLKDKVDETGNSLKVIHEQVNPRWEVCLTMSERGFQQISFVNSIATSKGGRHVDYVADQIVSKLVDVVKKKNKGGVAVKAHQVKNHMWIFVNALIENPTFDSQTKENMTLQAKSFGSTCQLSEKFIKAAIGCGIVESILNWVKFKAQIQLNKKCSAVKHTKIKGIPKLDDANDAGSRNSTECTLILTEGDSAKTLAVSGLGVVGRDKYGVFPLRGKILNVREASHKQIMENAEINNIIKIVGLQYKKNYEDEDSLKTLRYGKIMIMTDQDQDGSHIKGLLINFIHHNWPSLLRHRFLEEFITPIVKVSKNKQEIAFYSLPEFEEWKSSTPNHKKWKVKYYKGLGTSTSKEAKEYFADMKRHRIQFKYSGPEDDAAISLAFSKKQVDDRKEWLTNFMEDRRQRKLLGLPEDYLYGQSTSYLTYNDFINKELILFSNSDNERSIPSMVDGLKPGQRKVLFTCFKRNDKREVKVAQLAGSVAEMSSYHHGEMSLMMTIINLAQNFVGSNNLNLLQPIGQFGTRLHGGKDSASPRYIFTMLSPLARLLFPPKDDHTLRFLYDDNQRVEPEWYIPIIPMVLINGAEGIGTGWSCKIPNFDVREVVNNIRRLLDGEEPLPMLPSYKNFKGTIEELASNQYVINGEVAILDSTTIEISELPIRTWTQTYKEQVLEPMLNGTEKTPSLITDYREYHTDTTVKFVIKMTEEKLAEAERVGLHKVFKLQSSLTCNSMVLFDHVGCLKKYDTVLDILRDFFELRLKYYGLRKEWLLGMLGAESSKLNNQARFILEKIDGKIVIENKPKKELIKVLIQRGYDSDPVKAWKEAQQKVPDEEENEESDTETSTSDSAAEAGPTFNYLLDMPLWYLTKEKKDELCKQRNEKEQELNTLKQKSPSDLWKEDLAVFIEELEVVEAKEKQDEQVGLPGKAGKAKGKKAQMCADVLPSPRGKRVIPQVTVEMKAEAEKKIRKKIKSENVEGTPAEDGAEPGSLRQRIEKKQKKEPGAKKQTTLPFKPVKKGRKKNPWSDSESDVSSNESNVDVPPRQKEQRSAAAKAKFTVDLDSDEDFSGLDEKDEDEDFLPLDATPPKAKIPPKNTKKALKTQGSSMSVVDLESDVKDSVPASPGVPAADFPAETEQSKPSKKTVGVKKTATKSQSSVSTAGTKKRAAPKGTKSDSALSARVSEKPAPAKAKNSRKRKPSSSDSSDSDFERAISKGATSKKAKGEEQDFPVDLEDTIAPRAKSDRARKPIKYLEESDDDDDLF

Regarding `N.N.[Cl][Pt][Cl]` [CisPt, cisplatin], the Cisplatin-DNA adducts entry in test [1] is given as “detected”.

With `CC[C@@]1(O)C(=O)OCc2c1cc1n(c2=O)Cc2cc3ccccc3nc2-1` [CPT, camptothecin], the “RNAi signature classification (mechanism of action)” value (shortened to “RNAi signature classification”) in test [2] is “Topoisomerase I (Top1) poisons”. In addition, the “response of cells harboring the Top2A shRNA” value in test [3] is “sensitivity”. Further, in test [4], the “response of cells with knockdown of Top1” value was “resistance”.

As to `O=C1[O][Pt]2([NH][C@@H]3CCCC[C@H]3[NH]2)[O]C1=O` [OxPt, oxaliplatin], the “RNAi signature classification” value in test [2] is reported as “transcription/translation inhibitors”.

For the compound `COc1cccc2c1C(=O)c1c(O)c3c(c(O)c1C2=O)C[C@@](O)(C(=O)CO)C[C@@H]3O[C@H]1C[C@H](N)[C@H](O)[C@H](C)O1` [DOX, doxorubicin], in test [2], the “RNAi signature classification” value was “Topoisomerase II (Top2) poison”. Moreover, the “response of cells harboring the Top2A shRNA” value in test [3] is recorded as “resistant”. The “response of cells with knockdown of Top1” value in test [4] was “sensitivity”.

These data come from patent publication US10792373B2, “Drug delivery polymers and uses thereof” (priority 2016, dated 2020).
